Laboratory results from US12595253B2, “Benzamides of pyrazolylamino-pyrimidinyl derivatives, and compositions and methods thereof” (LYNK PHARMACEUTICALS CO. LTD., priority 2019, dated 2026).

What was measured:
[1] = Liver microsomes study, Phase I stability (HLM); assay type: in vitro ADME, human; settings: pH 7.4; human liver microsomes 0.5 mg/mL, 1 μM test article; read-out: HLM Clint
Outline: (§1)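 Rat or human liver microsomes were incubated with test article, and reactions started with an NADPH regenerating system. Samples at 0, 10, 30 and 90 minutes were quenched with cold acetonitrile and analyzed by LC/MS/MS. T½ and CLint came from the ln(% remaining) versus time slope, scaled by protein concentration.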

TYK2 = target: T1, TYK2 (Homo sapiens, UniProt P29597); assay: TYK2 microfluidic kinase assay (Caliper EZ Reader II, FAM labeled peptide substrate); assay type: biochemical; settings: IC50 TYK2 ([…]) (1 mM ATP), TYK2 […], 1 mM ATP
T1 construct: purchased Carna Biosciences
T1 sequence (P29597 whole entry): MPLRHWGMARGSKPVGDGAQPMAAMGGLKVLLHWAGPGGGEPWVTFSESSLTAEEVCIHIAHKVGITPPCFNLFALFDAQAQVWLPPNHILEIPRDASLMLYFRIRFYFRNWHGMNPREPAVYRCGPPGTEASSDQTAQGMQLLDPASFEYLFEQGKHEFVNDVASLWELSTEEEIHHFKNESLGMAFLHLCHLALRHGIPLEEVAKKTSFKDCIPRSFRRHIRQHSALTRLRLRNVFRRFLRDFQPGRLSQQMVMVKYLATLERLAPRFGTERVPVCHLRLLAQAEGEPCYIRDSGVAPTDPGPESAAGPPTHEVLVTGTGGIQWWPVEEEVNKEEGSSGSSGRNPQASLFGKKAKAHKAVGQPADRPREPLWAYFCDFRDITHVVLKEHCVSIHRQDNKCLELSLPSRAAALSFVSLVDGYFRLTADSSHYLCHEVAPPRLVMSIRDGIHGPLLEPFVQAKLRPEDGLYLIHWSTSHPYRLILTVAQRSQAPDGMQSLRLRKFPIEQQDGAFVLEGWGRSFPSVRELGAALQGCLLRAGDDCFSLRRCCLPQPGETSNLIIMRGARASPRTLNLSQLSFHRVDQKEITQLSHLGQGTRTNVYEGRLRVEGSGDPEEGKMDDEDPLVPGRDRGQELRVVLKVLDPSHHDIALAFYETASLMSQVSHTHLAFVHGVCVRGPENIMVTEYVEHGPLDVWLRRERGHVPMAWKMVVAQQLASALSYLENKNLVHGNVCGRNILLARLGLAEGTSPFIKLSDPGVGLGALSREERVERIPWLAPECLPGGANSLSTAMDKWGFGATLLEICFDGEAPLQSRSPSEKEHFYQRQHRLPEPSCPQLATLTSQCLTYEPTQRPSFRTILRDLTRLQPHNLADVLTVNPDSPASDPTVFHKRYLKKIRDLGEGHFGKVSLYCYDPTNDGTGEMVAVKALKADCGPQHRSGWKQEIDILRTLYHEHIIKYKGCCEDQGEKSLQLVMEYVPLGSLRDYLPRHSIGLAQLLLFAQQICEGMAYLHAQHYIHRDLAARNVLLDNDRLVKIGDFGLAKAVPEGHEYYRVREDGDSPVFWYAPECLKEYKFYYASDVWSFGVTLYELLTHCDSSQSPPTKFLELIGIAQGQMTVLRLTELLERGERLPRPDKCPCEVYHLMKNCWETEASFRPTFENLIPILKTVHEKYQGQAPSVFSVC
Outline: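 3-fold series, top 5 μM, 1% DMSO; 10 min preincubation with enzyme, RT. Buffer 50 mM HEPES/10 mM MgCl2/2 mM DTT/0.01% Brij35. Run times JAK1 120 min, JAK2 20, JAK2V617F 30, TYK2 10. Stopped with 50 mM EDTA; IC50 from % inhibition vs no-enzyme and DMSO controls.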

JAK2 = target: T2, JAK2 (Homo sapiens, UniProt O60674); assay: JAK2 microfluidic kinase assay (Caliper EZ Reader II, FAM labeled peptide substrate); assay type: biochemical; settings: IC50 JAK2 ([…]) (1 mM ATP), 1 mM ATP
T2 construct: purchased Carna Biosciences
T2 sequence (O60674 whole entry): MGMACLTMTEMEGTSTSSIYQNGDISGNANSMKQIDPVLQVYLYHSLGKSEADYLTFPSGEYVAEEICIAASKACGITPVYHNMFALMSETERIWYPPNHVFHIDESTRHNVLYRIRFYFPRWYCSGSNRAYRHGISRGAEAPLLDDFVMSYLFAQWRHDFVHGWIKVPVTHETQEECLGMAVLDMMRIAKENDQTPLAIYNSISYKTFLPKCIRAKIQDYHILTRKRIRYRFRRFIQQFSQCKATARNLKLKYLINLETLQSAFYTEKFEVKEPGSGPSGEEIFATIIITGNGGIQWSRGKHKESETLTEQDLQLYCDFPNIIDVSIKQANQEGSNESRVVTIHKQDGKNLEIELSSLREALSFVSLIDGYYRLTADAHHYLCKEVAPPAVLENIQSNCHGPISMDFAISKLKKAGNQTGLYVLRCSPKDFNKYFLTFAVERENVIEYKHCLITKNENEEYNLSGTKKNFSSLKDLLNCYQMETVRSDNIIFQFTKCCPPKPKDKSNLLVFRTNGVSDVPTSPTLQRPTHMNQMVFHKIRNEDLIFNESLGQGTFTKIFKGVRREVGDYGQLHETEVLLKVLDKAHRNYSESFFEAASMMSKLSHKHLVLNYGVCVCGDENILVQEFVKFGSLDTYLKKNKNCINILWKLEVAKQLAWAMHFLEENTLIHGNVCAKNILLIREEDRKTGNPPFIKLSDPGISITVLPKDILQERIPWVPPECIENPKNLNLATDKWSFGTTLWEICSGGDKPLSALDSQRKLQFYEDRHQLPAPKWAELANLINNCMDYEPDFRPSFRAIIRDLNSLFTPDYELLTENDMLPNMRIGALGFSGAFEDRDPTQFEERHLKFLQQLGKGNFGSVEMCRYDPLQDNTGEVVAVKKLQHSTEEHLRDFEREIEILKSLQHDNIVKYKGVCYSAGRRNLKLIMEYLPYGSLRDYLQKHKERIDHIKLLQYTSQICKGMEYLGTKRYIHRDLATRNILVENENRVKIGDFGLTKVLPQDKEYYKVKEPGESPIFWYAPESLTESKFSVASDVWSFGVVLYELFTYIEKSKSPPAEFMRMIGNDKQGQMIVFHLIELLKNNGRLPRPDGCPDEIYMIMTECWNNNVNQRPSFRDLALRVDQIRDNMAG
Outline: (§2)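 Microfluidic mobility-shift kinase assay in 50 mM HEPES, 0.01% Brij35, 10 mM MgCl2, 2 mM DTT. IC50 values come from percent-inhibition curves normalised to uninhibited and enzyme-free controls.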

[2] = Mini-pig dermal pharmacokinetic study; assay type: in vivo, Guangxi Bama mini-pigs; settings: topical administration
Description: The aim of this study was to obtain the topical distribution of test articles in mini-pig after topical administration. Test articles were formulated in 50% PEG400, 10% transcutol and 40% PEG3350 (50% in water), and then applied to male Guangxi Bama mini-pigs (17-20 kg). Twenty-four hour prior to dosing, the hair of the mini-pig was shaved in left and right sides of the back. Two areas at least 5 cm apart at each side of the back were exposed (a total of four areas, each of which was about 112 cm^2). At the time zero, the test article was dosed to the exposed skins with […]. After dosing, the blood and skin samples were collected at 0.5, 1, 3, 6 hour. The blood was taken via venipuncture, and collected to the tubes containing heparin sodium as the anticoagulant. Exposed skin was washed with soap and water before skin sample was collected. Upon the dosed skin the punch biopsy from the epidermis layer to the muscle layer were taken at each time point. Epidermis, dermis, subcutis and subcutaneous muscle were quickly separated, weighed and frozen in dry ice. Epidermis and dermis were homogenized in 1:3 (w/v) normal saline. Homogenized samples were extracted with 3 fold volumes of acetonitrile and quantified against a standard curve with LC-MS/MS system.

JAK1 = target: T3, JAK1 (Homo sapiens, UniProt P23458); assay: JAK1 microfluidic kinase assay (Caliper EZ Reader II, FAM labeled peptide substrate); assay type: biochemical; settings: IC50 JAK1 (5 nM) (1 m MATP), JAK1 5 nM, 1 mM ATP
T3 construct: purchased Carna Biosciences
T3 sequence (P23458 whole entry): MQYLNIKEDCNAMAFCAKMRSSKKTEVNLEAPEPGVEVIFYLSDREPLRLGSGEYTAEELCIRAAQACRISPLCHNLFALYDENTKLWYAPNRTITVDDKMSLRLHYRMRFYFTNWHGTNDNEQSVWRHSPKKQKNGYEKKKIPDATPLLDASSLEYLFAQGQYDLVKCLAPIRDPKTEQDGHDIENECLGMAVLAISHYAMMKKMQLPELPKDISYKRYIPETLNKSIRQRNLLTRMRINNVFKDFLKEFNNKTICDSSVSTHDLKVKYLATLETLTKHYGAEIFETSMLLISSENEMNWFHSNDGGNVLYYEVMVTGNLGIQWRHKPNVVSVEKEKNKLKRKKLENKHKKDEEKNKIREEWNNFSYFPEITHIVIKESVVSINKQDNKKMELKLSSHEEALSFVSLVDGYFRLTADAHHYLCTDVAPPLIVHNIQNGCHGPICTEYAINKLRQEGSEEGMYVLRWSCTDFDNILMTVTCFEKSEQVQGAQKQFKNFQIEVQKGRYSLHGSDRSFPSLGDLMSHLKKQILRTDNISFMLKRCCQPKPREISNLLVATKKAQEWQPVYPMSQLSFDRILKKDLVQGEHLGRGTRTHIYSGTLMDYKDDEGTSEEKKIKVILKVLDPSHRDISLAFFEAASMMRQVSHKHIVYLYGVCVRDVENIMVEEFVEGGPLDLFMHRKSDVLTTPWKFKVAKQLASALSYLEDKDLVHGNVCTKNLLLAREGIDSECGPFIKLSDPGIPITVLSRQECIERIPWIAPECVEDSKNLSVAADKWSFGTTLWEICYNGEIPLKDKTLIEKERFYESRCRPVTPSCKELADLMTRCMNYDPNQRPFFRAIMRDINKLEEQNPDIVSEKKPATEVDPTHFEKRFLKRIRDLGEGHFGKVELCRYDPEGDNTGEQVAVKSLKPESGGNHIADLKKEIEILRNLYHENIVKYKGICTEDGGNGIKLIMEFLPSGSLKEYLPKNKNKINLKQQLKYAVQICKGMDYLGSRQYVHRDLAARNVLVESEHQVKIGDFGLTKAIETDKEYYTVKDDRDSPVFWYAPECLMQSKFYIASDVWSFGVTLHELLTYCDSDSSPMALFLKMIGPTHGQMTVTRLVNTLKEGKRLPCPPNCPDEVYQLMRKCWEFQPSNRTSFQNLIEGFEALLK
Outline: as §2

[3] = Liver microsomes study, Phase I stability (RLM); assay type: in vitro ADME, rat; settings: pH 7.4; rat liver microsomes 0.5 mg/mL, 1 μM test article; read-out: RLM Clint
Outline: as §1

## Cc1cnc(Nc2cnn(C3CC(C)(C)OC(C)(C)C3)c2)nc1-c1ccc(C(=O)N[C@@H](C)C#N)cc1 [Example 173, (S)—N-(1-cyanoethyl)-4-(5-methyl-2-((1-(2,2,6,6-tetramethyltetrahydro-2H-pyran-4-yl)-1H-pyrazol-4-yl)amino)pyrimidin-4-yl)benzamide]
[1]
  microsomal CLint at 1 μM: 456 µL/min/mg
TYK2
  IC50: 1.07 nM
JAK2
  IC50: < 0.25 nM
[2]; male, Guangxi Bama, minipig, topical or ocular, 25 μL/m^2 at 6 ml/mL, plasma, read-out: Plasma AUC0-last
  AUC(0-t): 0.0173 µg·h/mL
[2]
  Dermis/plasma ratio (AUC): 273X
  Epiermis/plasma ratio (AUC): 4396X
JAK1
  IC50: 15.2 nM
[3]
  microsomal CLint at 1 μM: 69.4 µL/min/mg
